Results taken from patent publication US20250353873A1, “COMPOUNDS AND METHODS FOR MODULATING APOE EXPRESSION” (Ionis Pharmaceuticals, Inc., priority 2024, published 2025).
Strand notation (5' to 3'): a small letter for the sugar, then the base; units joined by * are phosphorothioate-linked, units joined directly phosphodiester-linked; [ ] holds rarer units or linkages, { } end groups; capitals alone tell only the bases. [ms] = mesyl phosphoramidate linkage; e = 2'-O-(2-methoxyethyl) (MOE); [5mC] = 5-methylcytosine; d = 2'-deoxy (DNA)

Experiments:
[1] = tested on: human APOE RNA; test: Activity in APOE 1549 knock-in mice, single ICV bolus, 2 weeks (Example 7); assay type: in vivo; conditions: single ICV bolus of 300 μg, two weeks post treatment
Procedure: Modified oligonucleotides described above were tested in APOE knock-in mice.
APOE knock-in mice (model 41549) were obtained from Taconic Biosciences. APOE knock-in mice were divided into groups of 2 mice each. Each mouse received a single intracerebroventricular (ICV) bolus of 300 μg of modified oligonucleotide. A group of 4 mice received a single ICV bolus with PBS as a negative control.
Two weeks post treatment, mice were sacrificed and RNA was extracted from cortical brain tissue and spinal cord for quantitative real-time RT-PCR analysis of RNA expression of APOE using primer probe set RTS3073 (described herein above). APOE RNA levels were normalized to mouse Ppia. Mouse Ppia was amplified using primer probe set m_cyclo24 (forward sequence TCGCCGCTTGCTGCA, designated herein as SEQ ID NO: 16; reverse sequence ATCGGCCGTGATGTCGA, designated herein as SEQ ID NO: 17; probe sequence […], designated herein as SEQ ID NO: 18). Results are presented as percent human APOE RNA relative to the amount of human APOE RNA in PBS treated animals, (% control). Each experiment is identified in separate tables below.

[2] = tested on: human APOE RNA; test: Activity in APOE C57BL/6NTac-Apoeem7250 knock-in mice, single ICV bolus, 8 weeks (Example 11); assay type: in vivo; conditions: single ICV bolus 300 μg, 8 weeks post treatment, normalized to mouse Ppia
Procedure, shortened: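 Human APOE knock-in C57BL/6NTac mice given one ICV bolus of 300 μg oligonucleotide; PBS-dosed group as control. At 8 weeks, cortex and spinal cord RNA measured by qRT-PCR (human probe RTS3073), normalized to mouse Ppia, expressed as % of PBS control.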

[3] = tested on: human APOE RNA; test: Activity in APOE C57BL/6NTac-Apoeem7250 knock-in mice, single ICV bolus, 16 weeks (Example 12); assay type: in vivo; conditions: single ICV bolus 300 μg, 16 weeks post treatment, normalized to mouse Ppia
Procedure, shortened: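 Knock-in mice (3-4 per group) received one ICV bolus of 300 μg oligonucleotide, PBS as control. After 16 weeks, human APOE RNA in cortex and spinal cord measured by RT-qPCR, normalized to mouse Ppia, and reported as % of PBS control.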

[4] = tested on: human APOE RNA; test: Duration of action study in APOE C57BL/6NTac-Apoeem7250 knock-in mice (Example 16); assay type: in vivo; conditions: 300 μg ICV
Procedure, shortened: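 Knock-in mice (2-4 per group) received a single ICV bolus of 300 μg oligonucleotide or PBS. At various timepoints, cortex and spinal cord human APOE RNA was measured by RT-qPCR (RTS3073), normalized to mouse Ppia and expressed as % of PBS control.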

[5] = tested on: human APOE RNA; test: Dose-dependent inhibition of human APOE RNA in HepG2 cells, electroporation, 24 hours (Example 6); assay type: cell-based
Procedure, shortened: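 HepG2 cells, 50,000 per well, electroporated with various oligonucleotide concentrations. APOE RNA measured with primer probe set RTS3073, normalized to GAPDH (RTS104), expressed as % of untreated control; IC50 then calculated.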

[6] = tested on: human APOE RNA; test: Activity in APOE 1549 knock-in mice, single ICV bolus, 4 weeks (Example 8); assay type: in vivo; conditions: n = 2, single ICV bolus of 300 μg, four weeks post treatment, Table 18
Procedure: Modified oligonucleotides described above were tested in the 1549 APOE knock-in mouse model described above.
APOE knock-in mice were divided into groups of either 2 or 6 mice each as described in the tables below. Each mouse received a single intracerebroventricular (ICV) bolus of 300 μg of modified oligonucleotide. A group of either 3 or 6 mice received a single ICV bolus with PBS as a negative control.
Four weeks post treatment, mice were sacrificed and RNA was extracted from cortical brain tissue and spinal cord for quantitative real-time RT-PCR analysis of RNA expression of APOE using primer probe set RTS3073 (described herein above). APOE RNA levels were normalized to mouse Ppia. Mouse Ppia was amplified using primer probe set m_cyclo24 (described herein above). Results are presented as percent human APOE RNA relative to the amount of human APOE RNA in PBS treated animals, (% control). Each experiment is identified in separate tables below.

[7] = tested on: human APOE RNA; test: Activity in APOE C57BL/6NTac-Apoeem7250 knock-in mice, single ICV bolus, 20 weeks (Example 13); assay type: in vivo; conditions: single ICV bolus 300 μg, 20 weeks post treatment, normalized to mouse Ppia
Procedure, shortened: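 Knock-in mice (n=4) given a single ICV bolus of 300 μg oligonucleotide, PBS as control. After 20 weeks, human APOE RNA in cortex and spinal cord measured by RT-qPCR, normalized to mouse Ppia, expressed as % of PBS-treated animals.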

| Substance | APOE RNA (% control) Cortex ([1]; Table 16) | APOE RNA (% control) Spinal Cord ([1]; Table 16) | IC50 [5] | APOE RNA (% UTC) ([5]; 5 nM) | APOE RNA (% UTC) ([5]; 13 nM) | APOE RNA (% UTC) ([5]; 33 nM) | APOE RNA (% UTC) ([5]; 82 nM) | APOE RNA (% UTC) ([5]; 205 nM) | APOE RNA (% UTC) ([5]; 512 nM) | APOE RNA (% UTC) ([5]; 1,280 nM) | APOE RNA (% UTC) ([5]; 3,200 nM) | APOE RNA (% UTC) ([5]; 8,000 nM) | APOE RNA (% UTC) ([5]; 20,000 nM) | APOE RNA (% control) Cortex [6] | APOE RNA (% control) Spinal Cord [6] | further results |
| --- | --- | --- | --- | --- | --- | --- | --- | --- | --- | --- | --- | --- | --- | --- | --- | --- |
| 1601949: 6-10-4 MOE gapmer CTGCAATGCATTAGAAACCT, linkages sooooossssssssssoss (antisense e[5mC]*eTeGe[5mC]eAeAdT*dG*d[5mC]*dA*dT*dT*dA*dG*dA*dA*eAe[5mC]*e[5mC]*eT) [compound 1601949] | 77 % control | 92 % control | – | – | – | – | – | – | – | – | – | – | – | – | – | – |
| 1601955: 6-10-4 MOE gapmer GCTAATTCAGTCCTCATTTT, linkages sooooossssssssssoss (antisense eG*e[5mC]eTeAeAeTdT*d[5mC]*dA*dG*dT*d[5mC]*d[5mC]*dT*d[5mC]*dA*eTeT*eT*eT) [compound 1601955] | 98 % control | 111 % control | – | – | – | – | – | – | – | – | – | – | – | – | – | – |
| 1601956: 6-10-4 MOE gapmer AAGTTCTCCAATCGACGGCT, linkages sooooossssssssssoss (antisense eA*eAeGeTeTe[5mC]dT*d[5mC]*d[5mC]*dA*dA*dT*d[5mC]*dG*dA*d[5mC]*eGeG*e[5mC]*eT) [compound 1601956] | 104 % control | 107 % control | – | – | – | – | – | – | – | – | – | – | – | – | – | – |
| 1601957: 6-10-4 MOE gapmer TCCTCATTTTAAAGTTCTCC, linkages sooooossssssssssoss (antisense eT*e[5mC]e[5mC]eTe[5mC]eAdT*dT*dT*dT*dA*dA*dA*dG*dT*dT*e[5mC]eT*e[5mC]*e[5mC]) [compound 1601957] | 101 % control | 90 % control | – | – | – | – | – | – | – | – | – | – | – | – | – | – |
| 1601958: 6-10-4 MOE gapmer CTTCACATTCTAAGCTCCAA, linkages sooooossssssssssoss (antisense e[5mC]*eTeTe[5mC]eAe[5mC]dA*dT*dT*d[5mC]*dT*dA*dA*dG*d[5mC]*dT*e[5mC]e[5mC]*eA*eA) [compound 1601958] | 109 % control | 102 % control | – | – | – | – | – | – | – | – | – | – | – | – | – | – |
| 1601959: 6-10-4 MOE gapmer CCGTGTCGCTGCCCCTGGCT, linkages sooooossssssssssoss (antisense e[5mC]*e[5mC]eGeTeGeTd[5mC]*dG*d[5mC]*dT*dG*d[5mC]*d[5mC]*d[5mC]*d[5mC]*dT*eGeG*e[5mC]*eT) [compound 1601959] | 107 % control | 85 % control | – | – | – | – | – | – | – | – | – | – | – | – | – | – |
| 1652902: 6-10-4 MOE gapmer CTTGGTGAATCTTTATTAAA, linkages sooooossssssssssoss (antisense e[5mC]*eTeTeGeGeTdG*dA*dA*dT*d[5mC]*dT*dT*dT*dA*dT*eTeA*eA*eA) [compound 1652902] | – | – | 70 nM | 88 % UTC | 94 % UTC | 54 % UTC | 44 % UTC | 26 % UTC | 19 % UTC | 10 % UTC | 4 % UTC | 3 % UTC | 2 % UTC | – | – | APOE RNA (% control) Cortex ([2]; cortex): 44 % control; APOE RNA (% control) Spinal Cord ([2]; spinal cord): 12 % control; APOE RNA (% control) Cortex ([3]; cortex): 105 % control; APOE RNA (% control) Spinal Cord ([3]; spinal cord): 60 % control; APOE RNA (% control) Cortex ([4]; 14 days post-dose): 43 % control; APOE RNA (% control) Cortex ([4]; 112 days post-dose): 75 % control; APOE RNA (% control) Spinal Cord ([4]; 14 days post-dose): 27 % control; APOE RNA (% control) Spinal Cord ([4]; 112 days post-dose): 32 % control; APOE RNA (% control) Cortex ([1]; Table 17): 31 % control; APOE RNA (% control) Spinal Cord ([1]; Table 17): 171 % control |
| 1736520: 6-10-4 MOE gapmer CTTGGTGAATCTTTATTAAA, linkages sossoszzzssssssssss (e[5mC]*eTeT*eG*eGeT*dG[ms]dA[ms]dA[ms]dT*d[5mC]*dT*dT*dT*dA*dT*eT*eA*eA*eA) [compound 1736520] | – | – | 570 nM | 109 % UTC | 87 % UTC | 92 % UTC | 72 % UTC | 62 % UTC | 34 % UTC | 28 % UTC | 11 % UTC | 11 % UTC | 83 % UTC | 41 % control | 32 % control | APOE RNA (% control) Cortex [7]: 65 % control; APOE RNA (% control) Spinal Cord [7]: 62 % control |
| 1736521: 6-10-4 MOE gapmer CTTGGTGAATCTTTATTAAA, linkages sosssszzzsssssssoss (e[5mC]*eTeT*eG*eG*eT*dG[ms]dA[ms]dA[ms]dT*d[5mC]*dT*dT*dT*dA*dT*eTeA*eA*eA) [compound 1736521] | – | – | 400 nM | 99 % UTC | 109 % UTC | 84 % UTC | 69 % UTC | 65 % UTC | 40 % UTC | 34 % UTC | 18 % UTC | 10 % UTC | 3 % UTC | 52 % control | 50 % control | – |
| 1736522: 6-10-4 MOE gapmer CTTGGTGAATCTTTATTAAA, linkages sooosszzssssssssoss (e[5mC]*eTeTeGeG*eT*dG[ms]dA[ms]dA*dT*d[5mC]*dT*dT*dT*dA*dT*eTeA*eA*eA) [compound 1736522] | – | – | 1380 nM | 110 % UTC | 88 % UTC | 90 % UTC | 82 % UTC | 67 % UTC | 59 % UTC | 45 % UTC | 41 % UTC | 18 % UTC | 43 % UTC | 41 % control | 39 % control | APOE RNA (% control) Cortex [7]: 64 % control; APOE RNA (% control) Spinal Cord [7]: 56 % control |
| 1736523: 6-10-4 MOE gapmer CTTGGTGAATCTTTATTAAA, linkages ssoooszzssssssssoss (e[5mC]*eT*eTeGeGeT*dG[ms]dA[ms]dA*dT*d[5mC]*dT*dT*dT*dA*dT*eTeA*eA*eA) [compound 1736523] | – | – | 670 nM | 97 % UTC | 114 % UTC | 108 % UTC | 79 % UTC | 78 % UTC | 47 % UTC | 29 % UTC | 39 % UTC | 5 % UTC | 4 % UTC | 42 % control | 34 % control | APOE RNA (% control) Cortex [7]: 73 % control; APOE RNA (% control) Spinal Cord [7]: 44 % control |
